From BindingDB's records for doi:10.1021/jm950372w (Rotta Research Laboratorium, 1996)
Structures can show the parent of a compound that is named as a salt.

How the values were obtained:
[1] = biological target: Gastrin/cholecystokinin type B receptor (Cavia porcellus); experiment: Inhibition of binding of [3H]N-Me-N-Leu-CCK-8 to cholecystokinin type B receptor in guinea pig brain cortex
[2] = biological target: Gastrin/cholecystokinin type B receptor (Oryctolagus cuniculus); experiment: In vitro inhibition of gastrin-induced [Ca2+] cytosolic elevation in isolated rabbit parietal cells

With `O=C(CCC(NC(=O)c1cc(Cl)cc(Cl)c1)C(=O)N1CCC2(CCCC2)CC1)NC(Cc1c[nH]c2ccccc12)C(=O)O` (stereo unspecified) [2-[5-(8-Aza-spiro[4.5]dec-8-yl)-4-(3,5-dichloro-benzoylamino)-5-oxo-pentanoylamino]-3-(1H-indol-3-yl)-propionic acid] as the compound, how does the IC50 [1] read?
Its IC50 is 49 nM.

What about the IC50 [2] of the same compound?
Its IC50 is 12 nM.

`O=C(CCC(NC(=O)c1cc(Cl)cc(Cl)c1)C(=O)N1CCC2(CCCC2)CC1)N[C@H](CC1CCCCC1)C(=O)O` (stereo partly drawn) [(R)-2-[5-(8-Aza-spiro[4.5]dec-8-yl)-4-(3,5-dichloro-benzoylamino)-5-oxo-pentanoylamino]-3-cyclohexyl-propionic acid] was tested. Which IC50 [1] did it give?
Its IC50 is 612 nM.

What about the IC50 [2] of the same compound?
Its IC50 is 142 nM.

`CN(Cc1ccccc1)C(=O)CC[C@H](NC(=O)CCC(NC(=O)c1cc(Cl)cc(Cl)c1)C(=O)N1CCC2(CCCC2)CC1)C(=O)O` (stereo partly drawn) [(S)-2-[5-(8-Aza-spiro[4.5]dec-8-yl)-4-(3,5-dichloro-benzoylamino)-5-oxo-pentanoylamino]-4-(benzyl-methyl-carbamoyl)-butyric acid] was tested. Which IC50 [1] did it give?
Its IC50 is 78 nM.

And the IC50 [2]?
Its IC50 is 55 nM.

With `O=C(O)CC[C@H](NC(=O)CCC(NC(=O)c1cc(Cl)cc(Cl)c1)C(=O)N1CCC2(CCCC2)CC1)C(=O)Nc1cccc2ccccc12` (stereo partly drawn) [(S)-4-[5-(8-Aza-spiro[4.5]dec-8-yl)-4-(3,5-dichloro-benzoylamino)-5-oxo-pentanoylamino]-4-(naphthalen-1-ylcarbamoyl)-butyric acid] as the compound, how does the IC50 [1] read?
Its IC50 is 20 nM.

And the IC50 [2]?
Its IC50 is 7 nM.

Which IC50 [1] does the source give for `O=C(CCC(NC(=O)c1cc(Cl)cc(Cl)c1)C(=O)N1CCC2(CCCC2)CC1)NC(Cc1ccc(O)cc1)C(=O)O` (stereo unspecified) [2-[5-(8-Aza-spiro[4.5]dec-8-yl)-4-(3,5-dichloro-benzoylamino)-5-oxo-pentanoylamino]-3-(4-hydroxy-phenyl)-propionic acid] here?
The IC50 was 320 nM.

What about the IC50 [2] of the same compound?
Its IC50 is 173 nM.

What does the source list for `O=C(O)CC[C@H](NC(=O)CCC(NC(=O)c1cc(Cl)cc(Cl)c1)C(=O)N1CCC2(CCCC2)CC1)C(=O)N1CCc2ccccc2C1` (stereo partly drawn) [(S)-4-[5-(8-Aza-spiro[4.5]dec-8-yl)-4-(3,5-dichloro-benzoylamino)-5-oxo-pentanoylamino]-5-(3,4-dihydro-1H-isoquinolin-2-yl)-5-oxo-pentanoic acid]?
IC50 [1]: 140 nM; IC50 [2]: 49 nM

Which results are given for `O=C(O)C[C@@H](NC(=O)CCC(NC(=O)c1cc(Cl)cc(Cl)c1)C(=O)N1CCC2(CCCC2)CC1)C(=O)N1CCC2(CCCC2)CC1` (stereo partly drawn) [(R)-4-(8-Aza-spiro[4.5]dec-8-yl)-3-[5-(8-aza-spiro[4.5]dec-8-yl)-4-(3,5-dichloro-benzoylamino)-5-oxo-pentanoylamino]-4-oxo-butyric acid]?
IC50 [1]: 1350 nM; IC50 [2]: 200 nM

`O=C(O)CC[C@@H](NC(=O)CCC(NC(=O)c1cc(Cl)cc(Cl)c1)C(=O)N1CCC2(CCCC2)CC1)C(=O)NCCc1ccccc1` (stereo partly drawn) [(R)-4-[5-(8-Aza-spiro[4.5]dec-8-yl)-4-(3,5-dichloro-benzoylamino)-5-oxo-pentanoylamino]-4-phenethylcarbamoyl-butyric acid] was tested. Which IC50 [1] did it give?
Its IC50 is 1110 nM.

What about the IC50 [2] of the same compound?
The IC50 was 398 nM.

Which results are given for `O=C(O)CC[C@@H](NC(=O)CCC(NC(=O)c1cc(Cl)cc(Cl)c1)C(=O)N1CCC2(CCCC2)CC1)C(=O)NCc1ccccc1` (stereo partly drawn) [(R)-4-[5-(8-Aza-spiro[4.5]dec-8-yl)-4-(3,5-dichloro-benzoylamino)-5-oxo-pentanoylamino]-4-benzylcarbamoyl-butyric acid]?
IC50 [1]: 427 nM; IC50 [2]: 38 nM

`O=C(O)CC[C@H](NC(=O)CCC(NC(=O)c1cc(Cl)cc(Cl)c1)C(=O)N1CCC2(CCCC2)CC1)C(=O)Nc1cccc2c1CCCC2` (stereo partly drawn) [(S)-4-[5-(8-Aza-spiro[4.5]dec-8-yl)-4-(3,5-dichloro-benzoylamino)-5-oxo-pentanoylamino]-4-(5,6,7,8-tetrahydro-naphthalen-1-ylcarbamoyl)-butyric acid] was tested. Which IC50 [1] did it give?
The IC50 was 57 nM.

And the IC50 [2]?
The IC50 was 16 nM.

`O=C(CCC(NC(=O)c1cc(Cl)cc(Cl)c1)C(=O)N1CCC2(CCCC2)CC1)NC(C(=O)O)c1ccccc1` (stereo unspecified) [[5-(8-Aza-spiro[4.5]dec-8-yl)-4-(3,5-dichloro-benzoylamino)-5-oxo-pentanoylamino]-phenyl-acetic acid] was tested. Which IC50 [1] did it give?
The IC50 was 390 nM.

What about the IC50 [2] of the same compound?
Its IC50 is 80 nM.

How did the IC50 [1] turn out when `O=C(CCC(NC(=O)c1cc(Cl)cc(Cl)c1)C(=O)N1CCC2(CCCC2)CC1)N[C@H](Cc1c[nH]c2ccccc12)C(=O)O` (stereo partly drawn) [(R)-2-[5-(8-Aza-spiro[4.5]dec-8-yl)-4-(3,5-dichloro-benzoylamino)-5-oxo-pentanoylamino]-3-(1H-indol-3-yl)-propionic acid] was run?
Its IC50 is 40 nM.

And the IC50 [2]?
The IC50 was 9 nM.

How did the IC50 [1] turn out when `CCCCCN(CCCCC)C(=O)[C@H](CCC(=O)O)NC(=O)CCC(NC(=O)c1cc(Cl)cc(Cl)c1)C(=O)N1CCC2(CCCC2)CC1` (stereo partly drawn) [(S)-4-[5-(8-Aza-spiro[4.5]dec-8-yl)-4-(3,5-dichloro-benzoylamino)-5-oxo-pentanoylamino]-4-dipentylcarbamoyl-butyric acid] was run?
Its IC50 is 135 nM.

What about the IC50 [2] of the same compound?
Its IC50 is 48 nM.

`O=C(O)CC[C@@H](NC(=O)CCC(NC(=O)c1cc(Cl)cc(Cl)c1)C(=O)N1CCC2(CCCC2)CC1)C(=O)NCCCc1ccccc1` (stereo partly drawn) [(R)-4-[5-(8-Aza-spiro[4.5]dec-8-yl)-4-(3,5-dichloro-benzoylamino)-5-oxo-pentanoylamino]-4-(3-phenyl-propylcarbamoyl)-butyric acid] was tested. Which IC50 [1] did it give?
The IC50 was 1860 nM.

And the IC50 [2]?
Its IC50 is 117 nM.

How did the IC50 [1] turn out when `O=C(CC[C@H](NC(=O)CCC(NC(=O)c1cc(Cl)cc(Cl)c1)C(=O)N1CCC2(CCCC2)CC1)C(=O)O)Nc1cccc2ccccc12` (stereo partly drawn) [(S)-2-[5-(8-Aza-spiro[4.5]dec-8-yl)-4-(3,5-dichloro-benzoylamino)-5-oxo-pentanoylamino]-4-(naphthalen-1-ylcarbamoyl)-butyric acid] was run?
Its IC50 is 44 nM.

And the IC50 [2]?
The IC50 was 12 nM.

`CN(Cc1ccccc1)C(=O)C[C@H](NC(=O)CCC(NC(=O)c1cc(Cl)cc(Cl)c1)C(=O)N1CCC2(CCCC2)CC1)C(=O)O` (stereo partly drawn) [(S)-2-[5-(8-Aza-spiro[4.5]dec-8-yl)-4-(3,5-dichloro-benzoylamino)-5-oxo-pentanoylamino]-N-benzyl-N-methyl-succinamic acid] was tested. Which IC50 [1] did it give?
Its IC50 is 158 nM.

And the IC50 [2]?
Its IC50 is 44 nM.

Which results are given for `O=C(CCC(NC(=O)c1cc(Cl)cc(Cl)c1)C(=O)N1CCC2(CCCC2)CC1)N[C@H](Cc1ccc2ccccc2c1)C(=O)O` (stereo partly drawn) [(R)-2-[5-(8-Aza-spiro[4.5]dec-8-yl)-4-(3,5-dichloro-benzoylamino)-5-oxo-pentanoylamino]-3-naphthalen-2-yl-propionic acid]?
IC50 [1]: 129 nM; IC50 [2]: 24 nM

For `O=C(O)CC[C@H](NC(=O)CCC(NC(=O)c1cc(Cl)cc(Cl)c1)C(=O)N1CCC2(CCCC2)CC1)C(=O)Nc1cccc2cccnc12` (stereo partly drawn) [(S)-4-[5-(8-Aza-spiro[4.5]dec-8-yl)-4-(3,5-dichloro-benzoylamino)-5-oxo-pentanoylamino]-4-(quinolin-8-ylcarbamoyl)-butyric acid; hydrochloride], which IC50 [1] is on record?
The IC50 was 108 nM.

What about the IC50 [2] of the same compound?
Its IC50 is 54 nM.

Which results are given for `O=C(O)CC[C@@H](NC(=O)CCC(NC(=O)c1cc(Cl)cc(Cl)c1)C(=O)N1CCC2(CCCC2)CC1)C(=O)N1CCC2(CCCC2)CC1` (stereo partly drawn) [(R)-5-(8-Aza-spiro[4.5]dec-8-yl)-4-[5-(8-aza-spiro[4.5]dec-8-yl)-4-(3,5-dichloro-benzoylamino)-5-oxo-pentanoylamino]-5-oxo-pentanoic acid]?
IC50 [1]: 1690 nM; IC50 [2]: 206 nM

`O=C(O)CCC(Cc1ccccc1)NC(=O)CCC(NC(=O)c1cc(Cl)cc(Cl)c1)C(=O)N1CCC2(CCCC2)CC1` (stereo unspecified) [4-[5-(8-Aza-spiro[4.5]dec-8-yl)-4-(3,5-dichloro-benzoylamino)-5-oxo-pentanoylamino]-5-phenyl-pentanoic acid] was tested. Which IC50 [1] did it give?
Its IC50 is 157 nM.

What about the IC50 [2] of the same compound?
The IC50 was 86 nM.

With `O=C(O)CC[C@H](NC(=O)CCC(NC(=O)c1cc(Cl)cc(Cl)c1)C(=O)N1CCC2(CCCC2)CC1)C(=O)N1CCC2CCCCC2C1` (stereo partly drawn) [(S)-4-[5-(8-Aza-spiro[4.5]dec-8-yl)-4-(3,5-dichloro-benzoylamino)-5-oxo-pentanoylamino]-5-(octahydro-isoquinolin-2-yl)-5-oxo-pentanoic acid] as the compound, how does the IC50 [1] read?
The IC50 was 185 nM.

What about the IC50 [2] of the same compound?
Its IC50 is 28 nM.

With `O=C(O)CC[C@H](NC(=O)CCC(NC(=O)c1cc(Cl)cc(Cl)c1)C(=O)N1CCC2(CCCC2)CC1)C(=O)Nc1cccc2ncccc12` (stereo partly drawn) [(S)-4-[5-(8-Aza-spiro[4.5]dec-8-yl)-4-(3,5-dichloro-benzoylamino)-5-oxo-pentanoylamino]-4-(quinolin-5-ylcarbamoyl)-butyric acid; hydrochloride] as the compound, how does the IC50 [1] read?
The IC50 was 136 nM.

What about the IC50 [2] of the same compound?
Its IC50 is 76 nM.

With `O=C(CCC(NC(=O)c1cc(Cl)cc(Cl)c1)C(=O)N1CCC2(CCCC2)CC1)N[C@H](Cc1cccc2ccccc12)C(=O)O` (stereo partly drawn) [(R)-2-[5-(8-Aza-spiro[4.5]dec-8-yl)-4-(3,5-dichloro-benzoylamino)-5-oxo-pentanoylamino]-3-naphthalen-1-yl-propionic acid] as the compound, how does the IC50 [1] read?
Its IC50 is 67 nM.

And the IC50 [2]?
The IC50 was 9 nM.

How did the IC50 [1] turn out when `CC(NC(=O)CCC(NC(=O)c1cc(Cl)cc(Cl)c1)C(=O)N1CCC2(CCCC2)CC1)C(=O)O` (stereo unspecified) [2-[5-(8-Aza-spiro[4.5]dec-8-yl)-4-(3,5-dichloro-benzoylamino)-5-oxo-pentanoylamino]-propionic acid] was run?
Its IC50 is 1250 nM.

What about the IC50 [2] of the same compound?
The IC50 was 994 nM.

`O=C(O)CNC(=O)CCC(NC(=O)c1cc(Cl)cc(Cl)c1)C(=O)N1CCC2(CCCC2)CC1` (stereo unspecified) [[5-(8-Aza-spiro[4.5]dec-8-yl)-4-(3,5-dichloro-benzoylamino)-5-oxo-pentanoylamino]-acetic acid] was tested. Which IC50 [1] did it give?
The IC50 was 1020 nM.

And the IC50 [2]?
The IC50 was 1040 nM.

`O=C(O)CC[C@H](NC(=O)CCC(NC(=O)c1cc(Cl)cc(Cl)c1)C(=O)N1CCC2(CCCC2)CC1)C(=O)Nc1ccc2c(c1)CCC2` (stereo partly drawn) [(S)-4-[5-(8-Aza-spiro[4.5]dec-8-yl)-4-(3,5-dichloro-benzoylamino)-5-oxo-pentanoylamino]-4-(indan-5-ylcarbamoyl)-butyric acid] was tested. Which IC50 [1] did it give?
The IC50 was 727 nM.

What about the IC50 [2] of the same compound?
The IC50 was 118 nM.

How did the IC50 [1] turn out when `CN(CC(=O)O)C(=O)CCC(NC(=O)c1cc(Cl)cc(Cl)c1)C(=O)N1CCC2(CCCC2)CC1` (stereo unspecified) [{[5-(8-Aza-spiro[4.5]dec-8-yl)-4-(3,5-dichloro-benzoylamino)-5-oxo-pentanoyl]-methyl-amino}-acetic acid] was run?
Its IC50 is 1570 nM.

And the IC50 [2]?
Its IC50 is 2810 nM.

Which results are given for `O=C(CCC(NC(=O)c1cc(Cl)cc(Cl)c1)C(=O)N1CCC2(CCCC2)CC1)Nc1ccc(C(=O)O)cc1` (stereo unspecified) [4-[5-(8-Aza-spiro[4.5]dec-8-yl)-4-(3,5-dichloro-benzoylamino)-5-oxo-pentanoylamino]-benzoic acid]?
IC50 [1]: 1760 nM; IC50 [2]: 568 nM
